Legend:
Target RNA = test: Tm values of L-thymidine modified oligonucleotides against RNA; type: binding
[1] = In vivo nuclease stability of L/D-oligonucleotide chimera, full-length oligonucleotide in organs by CGE; design: species or system BalbC mouse; conditions: IV bolus, after 24 h
Protocol: Here we report the in vivo nuclease stability of L/D-oligonucleotide chimera in mouse. We synthesized the phosphoramidite and CPG derived from L-thymidine, which was synthesized from a novel route [Jung, E. M.; Xu, Y. Tetrahedron Lett. 1997, 24, 4199-4202]. A 20 mer phosphorothioate oligonucleotide ISIS-120745 (antisense to mouse ICAM-1) was capped with L-2′-deoxy thymidine at 3′ and 5′-positions. The oligonucleotide was then administered IV bolus into BalbC mouse. After 24 h. mouse was sacrificed and the oligonucleotide was isolated from different organs. Percentage of full-length oligonucleotide present in different organs were analyzed by CGE.

Substance	Tm, Target RNA (Target RNA)	ΔTm (Target RNA)	intact full-length oligonucleotide isolated from all the major organs [1]
ISIS 121785: 5′ T*C^oC^oGCGCTGTGATGCA^oT^oT* 3′ (SEQ ID NO:2), L-thymidine caps, 2′-O-MOE, all P=S (DNA NNNCGCTGTGATGCNNN; L-thymidine caps, 2'-O-MOE, phosphorothioate, chemistry not fully specified)	63.3 °C	2.7 °C	–
ISIS 120745: 5′ T*GC ATC CCC CAG GCC ACC AT* 3′, T* = L-Thymidine, all P=S; antisense to mouse ICAM-1 (antisense TGCATCCCCCAGGCCACCAT; chemistry not fully specified)	–	−1.76 °C	> 90%

— patent US20030175906A1, “Nuclease resistant chimeric oligonucleotides” (priority 2001, published 2003)
